The record followed here is patent US10815238B2, “Antimicrobial compounds and methods of making and using the same” (BIOVERSYS AG, priority 2013, dated 2020).

The assay relates to Eschericia coli (E. coli) strain ATCC25922. Nature of the assay: Standard microdilution assay, MIC against E. coli ATCC25922. The assay is classed as cell-based. The note with it: Escherichia coli; E. coli strain ATCC25922, standard microdilution assay; cutoff 16 micrograms/mL; read-out: MIC E. Coli. As to the method: The in vitro activity of the compounds of the present invention can be determined. Antimicrobial testing is typically performed to determine the minimum inhibitory concentration (MIC). Minimum inhibitory concentrations (MICs) are determined by the microdilution method in a final volume of 100 μl according to protocols outlined by The Clinical and Laboratory Standards Institute (CLSI). Performance standards for reference strains are assessed within the same experimental design to maintain quality control. See, for example, Clinical Laboratory Standards Institute: Methods for dilution antimicrobial susceptibility tests for bacteria that grow aerobically M7-A8. Approved Standard-Eighth Edition. Wayne, Pa.: CLSI; December 2008; and Clinical Laboratory Standards Institute: Performance Standards for Antimicrobial Susceptibility Testing M100-S20; Approved Standard-Twentieth Edition. Wayne, Pa.: CLSI; June 2010.
The compounds of the present invention were tested for antimicrobial activity. The Compounds 1-582 were run against Eschericia coli (E. coli) strain ATCC25922 and Compounds 320-582 were run against Staphylococcus aureus (S. aureus) 11540 strain using a standard microdilution assay to determine minimum inhibitory concentrations (MICs). […] It will be recognized by one skilled in the art that the compounds can be assessed against other bacterial organisms and that the presentation of data for activity against Eschericia coli and Staphylococcus aureus are illustrative and in no way is intended to limit the scope of the present invention. The compounds of the present invention can be assayed against a range of other microorganisms depending upon the performance activity desired to be gathered. Furthermore, the “+” and “−” representation and the selection of a cutoff value of 16 micrograms/mL is also illustrative and in no way is intended to limit the scope of the present invention.
Consider `C[C@H](N)CCCc1cc(-c2cc3cn(-c4ccc([C@H](Cn5ccnn5)NCCCNC(=N)N)cc4)c(=O)nc3[nH]2)cc(C(F)(F)F)c1` [Compound 94], for which the MIC is less than 16 µg/mL.
With `C[C@H](N)CCCc1cc(Cl)c(F)c(-c2cc3cn(-c4ccc(CNCC[C@@H]5CN=C(N)N5)cc4)c(=O)nc3[nH]2)c1` [Compound 204], the MIC is less than 16 µg/mL.
Regarding `COC(=O)N[C@@H](C)CCCc1cc(Cl)c(F)c(-c2cc3cn(-c4ccc([C@H](C)NCCCNC(=N)N)cc4)c(=O)nc3[nH]2)c1` [Compound 70], the MIC is less than 16 µg/mL.
As to `C[C@H](N)CCCc1cc(-c2cc3cn(-c4ccc([C@@H](CCN)NCCCNC(=N)N)cc4)c(=O)nc3[nH]2)cc(C(F)(F)F)c1` [Compound 6], the MIC is less than 16 µg/mL.
With `C[C@H](N)CCCc1cc(SC(F)(F)F)cc(-c2cc3cn(-c4ccc([C@H](CCN)NCCCNC(=N)N)cc4)c(=O)nc3[nH]2)c1` [Compound 23], the MIC was less than 16 µg/mL.
On to `CC(=O)OC[C@H](N)CCCc1cc(Cl)c(F)c(-c2cc3cn(-c4ccc([C@H](C)NCCCNC(=N)N)cc4)c(=O)nc3[nH]2)c1` [Compound 295], for which the MIC is less than 16 µg/mL.
Consider `C[C@H](N)CCCc1cc(Cl)c(F)c(-c2cc3cn(-c4ccc([C@H](C)NCCC(CC(O)CO)NC(=N)N)cc4)c(=O)nc3[nH]2)c1` (stereo partly drawn) [Compound 270], for which the minimal inhibitory concentration (MIC) was less than 16 µg/mL.
With `C[C@H](NCCCNC(=N)N)c1ccc(-n2cc3cc(-c4cc(SC(F)(F)F)cc([C@H](O)CC[C@H](N)CO)c4)[nH]c3nc2=O)cc1` [Compound 111], the minimal inhibitory concentration (MIC) was less than 16 µg/mL.
For the molecule `C[C@H](N)CCCc1cc(OC(F)(F)F)c(F)c(-c2cc3cn(-c4ccc([C@H](C)NCC[C@H](Cc5c[nH]nn5)NC(=N)N)cc4)c(=O)nc3[nH]2)c1` [Compound 269], the MIC was less than 16 µg/mL.
With `COc1ccc([C@@H](c2ccc(SC)cc2)c2ccc(-n3cc4cc(-c5cc(CCC[C@H](C)N)cc(SC(F)(F)F)c5)[nH]c4nc3=O)cc2)cc1` [Compound 9], the MIC is greater than 16 µg/mL.
Consider `N=C(N)NCCCNCc1ccc(-n2cc3cc(-c4cc(OC(F)(F)F)cc([C@H]5C[C@H](N)CCO5)c4)[nH]c3nc2=O)cc1` [Compound 35], for which the MIC was less than 16 µg/mL.
On to `C[C@H](N)CCCc1cc(Cl)c(F)c(-c2cc3cn(-c4ccc(CNCc5nn[nH]n5)cc4)c(=O)nc3[nH]2)c1` [Compound 162], for which the MIC was greater than 16 µg/mL.
With `C[C@H](N)CCCc1cc(Cl)c(F)c(-c2cc3cn(-c4ccc(CNCCC(C)(C)N)cc4)c(=O)nc3[nH]2)c1` [Compound 175], the minimal inhibitory concentration (MIC) is less than 16 µg/mL.
Take `C[C@H](N)CCCc1cc(Cl)c(F)c(-c2cc3cn(-c4ccc([C@H](C)NCC[C@@H](C)NC(=N)N)cc4)c(=O)nc3[nH]2)c1` [Compound 194]: the MIC is less than 16 µg/mL.
Take `C[C@H](N)CC[C@@H](O)c1cc(-c2cc3cn(-c4ccc([C@H](C)NCCCNC(=N)N)cc4)c(=O)nc3[nH]2)cc(C(F)(F)F)c1` [Compound 21]: the MIC was less than 16 µg/mL.
Regarding `C[C@H](N)CCCc1cc(Cl)c(F)c(-c2cc3cn(-c4ccc([C@H](CCF)NCCCNC(=N)N)cc4)c(=O)nc3[nH]2)c1` [Compound 74], the MIC was less than 16 µg/mL.
With `C[C@H](N)CCCc1cc(Cl)c(F)c(-c2cc3cn(-c4ccc([C@H](C)NCC[C@@H](CN)NC(=N)N)cc4)c(=O)nc3[nH]2)c1` [Compound 271], the MIC was less than 16 µg/mL.
Turning to `C[C@H](N)CCCc1cc(-c2cc3cn(-c4ccc([C@H](C)NCCCNC(=N)N)cc4)c(=O)nc3[nH]2)c(F)c(C(F)(F)F)c1F` [Compound 214], the MIC is less than 16 µg/mL.
Regarding `C[C@H](N)CCCc1cc(Cl)c(F)c(-c2cc3cn(-c4ccc(CN[C@@H](C)CCN)cc4)c(=O)nc3[nH]2)c1` [Compound 196], the MIC was less than 16 µg/mL.
The value for `C[C@H](N)CCCc1cc(SC(F)(F)F)cc(-c2cc3cn(-c4ccc([C@H](CCF)NCCCNC(=N)N)cc4)c(=O)nc3[nH]2)c1` [Compound 75] was less than 16 µg/mL; that for `C[C@H](N)CCCc1cc(Cl)c(F)c(-c2[nH]c3nc(=O)n(-c4ccc([C@H](C)NCCCNC(=N)N)cc4)cc3c2Cl)c1` [Compound 290] was less than 16 µg/mL.
For `C[C@H](N)CCCc1cc(Cl)c(F)c(-c2cc3cn(-c4ccc([C@H](C)NCC[C@H](Cc5c[nH]nn5)NC(=N)N)cc4)c(=O)nc3[nH]2)c1` [Compound 267], the MIC was less than 16 µg/mL.
For `C=C[C@H](N)CCNCc1ccc(-n2cc3cc(-c4cc(CCC[C@H](C)N)cc(Cl)c4F)[nH]c3nc2=O)cc1` [Compound 143], the minimum inhibitory concentration (MIC) is less than 16 µg/mL.
Consider `CC(=O)N[C@@H](C)CCCc1cc(Cl)c(F)c(-c2cc3cn(-c4ccc([C@H](C)NCCCNC(=N)N)cc4)c(=O)nc3[nH]2)c1` [Compound 76], for which the MIC was greater than 16 µg/mL.
On to `C[C@H](N)CCCc1cc(SC(F)(F)F)cc(-c2cc3cn(-c4ccc([C@H](Cn5ccnn5)NCCCNC(=N)N)cc4)c(=O)nc3[nH]2)c1` [Compound 88], for which the minimal inhibitory concentration (MIC) is less than 16 µg/mL.
To `C[C@H](N)CCCc1cc(OC(F)(F)F)c(F)c(-c2cc3cn(-c4ccc([C@H](C)NCC[C@H](CN)NC(=N)N)cc4)c(=O)nc3[nH]2)c1` [Compound 305] belongs less than 16 µg/mL; to `C[C@H](N)CCCc1cc(-c2cc3cn(-c4ccc([C@H](CCO)NCCCNC(=N)N)cc4)c(=O)nc3[nH]2)cc(C(F)(F)F)c1` [Compound 16], less than 16 µg/mL.
To `C[C@H](NCCCNC(=N)N)c1ccc(-n2cc3cc(-c4cc(CCC[C@@H](N)CN)cc(Cl)c4F)[nH]c3nc2=O)cc1` [Compound 319] belongs less than 16 µg/mL.
To `C[C@H](N)CCCc1cc(OC(F)(F)F)c(F)c(-c2cc3cn(-c4ccc([C@H](C)NCC[C@@H](CO)NC(=N)N)cc4)c(=O)nc3[nH]2)c1` [Compound 265] belongs less than 16 µg/mL; to `C[C@H](N)CCCc1cc(Cl)c(F)c(-c2cc3cn(-c4ccc(CN[C@H](CO)CCNC(=N)N)cc4)c(=O)nc3[nH]2)c1` [Compound 249], less than 16 µg/mL; to `C[C@H](N)CCCc1cc(Cl)c(F)c(-c2cc3cn(-c4ccc([C@@H](NCCCNC(=N)N)c5cccnc5)cc4)c(=O)nc3[nH]2)c1` [Compound 61], less than 16 µg/mL.
On to `C[C@H](N)CCCc1cc(OC(F)(F)F)c(F)c(-c2cc3cn(-c4ccc(CN[C@@H](CO)CCNC(=N)N)cc4)c(=O)nc3[nH]2)c1` [Compound 274], for which the MIC is less than 16 µg/mL.
Regarding `C[C@H](N)CCCc1cc(SC(F)(F)F)cc(-c2cc3cn(-c4ccc(CNCC(=O)O)cc4)c(=O)nc3[nH]2)c1` [Compound 116], the MIC was greater than 16 µg/mL.
On to `COc1ccc(Cn2cc(CNCc3ccc(-n4cc5cc(-c6cc(CCC[C@H](C)N)cc(Cl)c6F)[nH]c5nc4=O)cc3)nn2)cc1` [Compound 120], for which the MIC is greater than 16 µg/mL.
To `C[C@H](N)CCCc1cc(Cl)c(F)c(-c2[nH]c3nc(=O)n(-c4ccc([C@H](C)NCCCNC(=N)N)cc4)cc3c2Br)c1` [Compound 286] belongs less than 16 µg/mL.
With `CNCCNCc1ccc(-n2cc3cc(-c4cc(CCC[C@H](C)N)cc(Cl)c4F)[nH]c3nc2=O)cc1` [Compound 123], the MIC was less than 16 µg/mL.
Take `C[C@H](N)CCCc1cc(Cl)c(F)c(-c2cc3cn(-c4ccc([C@@H](NCCCNC(=N)N)C5CC5)cc4)c(=O)nc3[nH]2)c1` [Compound 102]: the MIC was less than 16 µg/mL.
The value for `C[C@H](N)CCCc1cc(Cl)c(F)c(-c2cc3cn(-c4ccc(CN[C@H](C)CCNC(=N)N)cc4)c(=O)nc3[nH]2)c1` [Compound 209] was less than 16 µg/mL; that for `C[C@H](N)CCCc1cc(SC(F)(F)F)cc(-c2cc3cn(-c4ccc([C@@H](NCCCNC(=N)N)C(N)=O)cc4)c(=O)nc3[nH]2)c1` [Compound 58] was less than 16 µg/mL.
Take `N=C(N)NCCCNCc1ccc(-n2cc3cc(-c4cc(C[C@H]5C[C@H](N)CCO5)cc(OC(F)(F)F)c4)[nH]c3nc2=O)cc1` [Compound 37]: the minimal inhibitory concentration (MIC) is less than 16 µg/mL.
The value for `C[C@H](N)CCCc1cc(Cl)c(F)c(-c2cc3cn(-c4ccc(CNCC[C@@H](N)C5CC5)cc4)c(=O)nc3[nH]2)c1` [Compound 148] was less than 16 µg/mL; that for `CNCCNCc1ccc(-n2cc3cc[nH]c3nc2=O)cc1` [Compound 142] was greater than 16 µg/mL; that for `C[C@H](N)CCCc1cc(OC(F)(F)F)c(F)c(-c2cc3cn(-c4ccc(C[C@H](N)CCCNC(=N)N)cc4)c(=O)nc3[nH]2)c1` [Compound 231] was less than 16 µg/mL.
To `O=C(O)CCNCc1ccc(-n2cc3cc[nH]c3nc2=O)cc1` [Compound 138] belongs greater than 16 µg/mL.
The value for `C[C@H](N)CCCc1cc(OC(F)(F)F)c(F)c(-c2cc3cn(-c4ccc(CN[C@H](C)CCNC(=N)N)cc4)c(=O)nc3[nH]2)c1` [Compound 228] was less than 16 µg/mL; that for `C[C@H](N)CCCc1cc(-c2cc3cn(-c4ccc([C@@H](CF)NCCCNC(=N)N)cc4)c(=O)nc3[nH]2)cc(C(F)(F)F)c1` [Compound 97] was less than 16 µg/mL.
`C[C@H](N)CCCc1cc(SC(F)(F)F)cc(-c2cc3cn(-c4ccc(C(NCCCNC(=N)N)c5nnn[nH]5)cc4)c(=O)nc3[nH]2)c1` (stereo partly drawn) [Compound 106]: the MIC is less than 16 µg/mL.
As to `C[C@H](N)CCCc1cc(SC(F)(F)F)cc(-c2cc3cn(-c4ccc(CNCCC(=O)O)cc4)c(=O)nc3[nH]2)c1` [Compound 140], the minimum inhibitory concentration (MIC) is greater than 16 µg/mL.
